Source: patent US8287918B2, “Medicament for treating lung cancer” (Dainippon Sumitomo Pharma Co., Ltd., priority 2001, dated 2012)
Structures can show the parent of a compound that is named as a salt. Where two headings read alike, the source gives them in different places.

Assays:
tumor cells = details: Cancer Chemothr. Pharmacol., 30, 51-57 (1992); cited from earlier work
[1] = test system: Human small cell lung cancer LX-1 cell strain; experiment: Antitumor activity against subcutaneously transplanted LX-1 tumor in nude mice; assay type: in vivo; details: single agent at maximum tolerated dose (amrubicin hydrochloride 25 mg/kg; cisplatin 10 mg/kg), single intravenous administration, measured for 23 days
Procedure: Human small cell lung cancer LX-1 cell strain was subcutaneously transplanted to nude mice (80 animals) at 5 weeks of age. After 15 days from the tumor transplantation, 36 animals having a tumor volume of about 200 to 500 mm^3 were allotted to 6 groups consisting of 6 animals per group. On the same day, the animals received intravenous administration, respectively, of physiological saline for “vehicle group”, the maximum tolerated dose of amrubicin hydrochloride (25 mg/kg) for “an amrubicin hydrochloride alone administration group”, the maximum tolerated dose of cisplatin (10 mg/kg) for “cisplatin alone administration group”, 0.5 times of the maximum tolerated dose of amrubicin hydrochloride and 0.5 times of the maximum tolerated dose of cisplatin for “combined administration group (0.5×MTD)”, 0.8 times of the maximum tolerated dose of amrubicin hydrochloride and 0.8 times of the maximum tolerated dose of cisplatin for “combined administration group (0.8×MTD)”, the maximum tolerated dose of amrubicin hydrochloride and the maximum tolerated dose of cisplatin for “combined administration group (1×MTD)”. Thereafter, tumor volume and body weight of the mice were measured for 23 days. […]
The minimum T/C % was calculated as follows: […]

[2] = humans, cited from earlier work
[3] = rabbit chronic experimental model; Invest. New Drug, 15, 219-225 (1997); cited from earlier work

CC(O)[C@]1(N)Cc2c(O)c3c(c(O)c2[C@@H](O[C@H]2C[C@H](O)[C@H](O)CO2)C1)C(=O)c1ccccc1C3=O (stereo partly shown) [amrubicinol]
inhibitory activity against growth of tumor cells compared with amrubicin (tumor cells): considerably stronger

N.N.[Cl][Pt][Cl] [cisplatin, cis-diammin dichloroplatinum]
Minimum T/C % [1]: 68% | maximum tolerated dose [2]: 90 mg/m^2

CC(=O)[C@]1(N)Cc2c(O)c3c(c(O)c2[C@@H](OC2CC(O)C(O)CO2)C1)C(=O)c1ccccc1C3=O (stereo partly shown) [amrubicin hydrochloride]
Minimum T/C % [1]: 55% | maximum tolerated dose ([2]; administration in 3 continuous days): 50 mg/m^2 per day | maximum tolerated dose ([2]; once a day single dose): 130 mg/m^2

CC(=O)[C@]1(N)Cc2c(O)c3c(c(O)c2[C@@H](O[C@H]2C[C@H](O)[C@H](O)CO2)C1)C(=O)c1ccccc1C3=O [amrubicin, (+)-(7S,9S)-9-acetyl-9-amino-7-[(2-deoxy-β-D-erythro-pentopyranosyl)oxy]-7,8,9,10-tetrahydro-6,11-dihydroxy-5,12-naphthacenedione]
cardiac toxicity compared with doxorubicin [3]: far weaker than doxorubicin
